We go through 2 compounds from patent US10231952B2, “Use of arginine vasopressin receptor antagonists for the treatment of prostate cancer” (UNIVERSITY OF MIAMI, priority 2014, dated 2019).

The subject of series [1] is 22Rv1 cells. Kind of series: SR49059 treatment, cell number and trypan blue cell death, 22Rv1. Type of series: cell-based, human. Particulars: low nanomolar concentrations, five days. On the procedure: (§1) FIGS. 7A-7I. Pharmacologic blockade of AVPR1a decreases human prostate cancer cell but not normal prostate epithelial cell proliferation and selectively kills human prostate cancer cells. (A) 22Rv1, (B) CWR-R1, (C) PC3, and (D) RWPE-1 cells were treated with vehicle or SR49059 at the indicated concentrations and harvested five days post treatment. A representative experiment (of four) was performed in triplicate and data are plotted as cell number (thousands)±SD. Significance was determined using a Student's t-test comparing to vehicle controls (**, p<0.01; ***, p<0.001). (E) 22Rv1, (F) CWR-R1, (G) PC3 or (H) RWPE-1 cells were plated and grown as described above. Adherent and floating cells were harvested and cells that stained with trypan blue or that excluded stain were counted. A representative experiment (of four) was performed in triplicate. Significance was determined using a Student's t-test comparing to vehicle controls (**, p<0.01; ***, p<0.001). (I) Lysates from cells in (A)-(D) were immunoblotted with antibodies that recognize cleaved PARP and actin.

In series [2] the test system is CWR-R1 cells. Kind of series: SR49059 treatment, cell number and trypan blue cell death, CWR-R1. The format is cell-based, human. The following applies: low nanomolar concentrations, five days. On the procedure: as §1
The subject of series [3] is PC3 cells. The series is described as follows: SR49059 treatment, cell number and trypan blue cell death, PC3. The format is cell-based, human. The following applies: low nanomolar concentrations, five days. On the procedure: as §1
For series [4], the system named is RWPE1 cells. Kind of series: SR49059 treatment, cell number and trypan blue cell death, RWPE-1 normal prostate epithelial cells. Type of series: cell-based, human. On the procedure: as §1
The next series concerns LNCaP cells. The series is described as follows: Relcovaptan treatment of androgen dependent LNCaP cells (data not shown). The format is cell-based, human.
Another series deals with cleaved PARP. The series is described as follows: Immunoblot for cleaved PARP after Relcovaptan treatment. The format is cell-based, human. On the procedure:
as §1
In general terms: A western blot detects proteins with antibodies after separation by electrophoresis.

A further series concerns 22Rv1 xenografts. The series is described as follows: Pilot 22Rv1 xenograft in castrated nude mice, Relcovaptan IP. Type of series: in vivo. Particulars: 2.5 mg/kg IP, 5 times per week. On the procedure: FIG. 8. […] 22RV1 cells (2×106) resuspended in BD Matrigel were injected into both hind flanks of castrated nude mice (n=8). […] Top graph, once palpable, tumor size was measured five days per week. Significance was determined using a Student's t-test comparing to vehicle controls (* p<0.05). Lower graph, mice were weighed five days per week.

Another series deals with ERK1/2 phosphorylation. Kind of series: Phospho-ERK1/2 immunoblot, AVP plus/minus Relcovaptan (FIG. 10). The format is cell-based, human. The following applies: 22Rv1 or CWR-R1; 1 nM AVP plus 1 nM Relcovaptan; 25 min. The source says:
FIG. 10. […] Lysates were immunoblotted for phospho-ERK1/2 and total ERK1/2.

Series [5] deals with 22Rv1, VCaP and RWPE1 cells. The series is described as follows: Relcovaptan on prostate cancer cell growth / anchorage independent growth (Example 10). The format is cell-based, human. On the procedure: The effect of an AVPR1a antagonist on the anchorage independent growth of a castration-resistant prostate cancer cell line (i.e., 22Rv1) was evaluated.
The test system of another series is ERK phosphorylation. The series is described as follows: Total and phosphoERK after AVP stimulation of 22Rv1 with AVPR1a antagonist pretreatment (FIG. 18). The format is cell-based, human. Particulars: 10 nM AVP, antagonist pretreatment. On the procedure: Total and phosphoERK levels were assessed following stimulation of 22Rv1 with 10 nM AVP for 25 minutes and pretreatment with AVPR1a antagonist (or vehicle control).

In a further series the test system is VCaP xenografts. The series is described as follows: Castration resistant VCaP xenografts in SCID mice, oral Relcovaptan. Particulars: 50 mg/kg daily oral gavage, 14 days. Type of series: in vivo. On the procedure: Subcutaneous VCaP xenografts (bilateral) were established in SCID mice. Mice were castrated when tumors reached 250-300 mm^3. […] Circulating prostate specific antigen (PSA) was measured by ELISA in mice prior to tumor xenografting (baseline), at the time of castration (pre-treatment) and at the time of sacrifice (post-treatment).

For series [6], the system named is 22Rv1 cells. The series is described as follows: shAVPR1a depletion, growth curves and trypan blue cell death, 22Rv1. Type of series: cell-based, human. Particulars: 22Rv1 stably expressing shAVPR1a vs shGFP. The source says:
(§2) FIGS. 3A-3D. Depletion of AVPR1a decreases aggressive prostate cancer cell proliferation. […] Live cells (trypan blue exclusion) were counted at the indicated times (hr). Significant differences (p<0.05) in proliferation between shGFP and shAVPR1a-transduced cells occurred by 48-72 hr in CRPC (A-C) but not in normal prostate epithelial cells, RWPE-1 (D). Lower panels quantify AVPR1a mRNA depletion by shRNA in each cell line.
(§3) FIGS. 4A-4E. Depletion of AVPR1a promotes death of aggressive prostate cancer cells. (A) 22Rv1, (B) CWR-R1, (C) PC3 or (D) RWPE-1 cells stably expressing either plk0.1-shGFP or -shAVPR1a were plated and grown as in FIG. 3. Adherent and floating cells were harvested and cells that stained with trypan blue or that excluded stain were counted. Data represent three independent experiments performed in triplicate. Significance was determined using a Student's t-test comparing to shGFP controls (***, p<0.001). (E) Cell lysates were immunoblotted with antibodies that recognize cleaved PARP, cyclin A, and actin.

Series [7] has as its system CWR-R1 cells. Kind of series: shAVPR1a depletion, growth curves and trypan blue cell death, CWR-R1. The format is cell-based, human. Particulars: CWR-R1 stably expressing shAVPR1a vs shGFP.
Text: as §2, §3

Series [8] relates to PC3 cells. The series is described as follows: shAVPR1a depletion, growth curves and trypan blue cell death, PC3. Type of series: cell-based, human. Particulars: PC3 stably expressing shAVPR1a vs shGFP.
Text: as §2, §3

In series [9] the test system is RWPE1 cells. The series is described as follows: shAVPR1a depletion, growth curves and trypan blue cell death, RWPE1. The format is cell-based, human. The following applies: RWPE1 stably expressing shAVPR1a vs shGFP.
Text: as §2, §3

Series [10] relates to cleaved PARP, Cyclin A, p-RB. Kind of series: Immunoblot of apoptosis and G1/S cell-cycle markers after AVPR1a depletion. Type of series: cell-based, human. On the procedure:
as §3
(§4) This finding is significant as AR splice variants are a proposed mechanism of resistance to drugs that target full length AR including the newer agents, abiraterone and enzalutamide (6,7). Thus, targeting AVPR1a may be a strategy to overcome therapeutic resistance to these next generation drugs.
Next, Western-blot analysis was performed in PC3, 22Rv1 and LNCaP Abl (CRPC) and RWPE1 (non-tumorigenic prostate epithelial cells) to examine G1/S cell-cycle markers: Cyclin A, p-RB or P27.

Series [11] deals with full length AR and AR splice variants. The series is described as follows: Immunoblot of AR after AVPR1a depletion in 22Rv1. The format is cell-based, human.
Text: FIG. 5. AVPR1a knock down results in down-regulation of androgen receptor (AR) and AR splice variant expression in human prostate cancer cells. […] ARdeltaLBD refers to C-terminally truncated AR splice variants such as AR3.
as §4

For series [12], the system named is 22Rv1, CWR-R1 or PC3 cells. The series is described as follows: Soft agar anchorage independent growth after AVPR1a depletion. Type of series: cell-based, human. On the procedure:
FIG. 6. AVPR1a is necessary for anchorage independent growth of human prostate cancer cells. The growth in soft agar of 22Rv1, CWR-R1 or PC3 cells stably expressing the indicated shRNA vectors was assessed. Average colony number per plate±SEM is plotted. Data represent two independent experiments performed in triplicate. Significance was determined using a Student's t-test comparing to shGFP controls (***, p<0.001).
as §4
Next, PC3 and 22RV1 cells (CRPC cell lines) in which AVPR1a was depleted (or control shGFP) were cultured in soft agar for three weeks to assess anchorage independent growth (anoikis resistance).

In series [13] the test system is CRPC cells (PC3, 22RV1, LNCaP-abl, C4-2, CWR-R1). Kind of series: shAVPR1a depletion, live cell counting, CRPC cells (Example 8). The format is cell-based, human. The source says:
(§5) (● shGFP served as a control, SEQ ID NO: 5-[…] A summary of the human prostate cell lines used is provided below in Table 1:
(§6) Data represent three independent experiments performed in triplicate for all cell lines except C4-2, which was done one time in triplicate. […] A second distinct AVPR1a shRNA produced similar results (data not shown).

Series [14] relates to androgen dependent cells, LNCaP, VCaP and non-tumorigenic prostate epithelial RWPE1 cells. The series is described as follows: shAVPR1a depletion, live cell counting, androgen dependent and normal cells (Example 8). Type of series: cell-based, human.
Text: as §5, §6

“Also recorded” adds a separate entry of the source.

On to `COc1ccc(S(=O)(=O)N2c3ccc(Cl)cc3[C@](O)(c3ccccc3Cl)[C@@H]2C(=O)N2CCC[C@H]2C(N)=O)cc1OC` [Relcovaptan], for which the cell death entry in the series with 22Rv1 cells [1] is “promoted CRPC cell death”; in the series with CWR-R1 cells [2] it was “promoted CRPC cell death”; in the series with PC3 cells [3], “promotes cell death; also recorded: promoted CRPC cell death”; with RWPE1 cells [4] (doses as high as 10 μM, data not shown), “did not promote RWPE1 cell death”; in the series on LNCaP cells, “approx. 20%”. Besides, the proliferation entry with 22Rv1 cells [1], in the series on CWR-R1 cells [2] and in the series on PC3 cells [3] was “inhibited proliferation” throughout. The cell proliferation result in the series on RWPE1 cells [4] (1-10 nM) is “no effect”. For the same compound, in the series with RWPE1 cells [4] (1-10 nM), the cell survival result was “no effect”. Moreover, in the series on LNCaP cells, the growth entry is on record as “inhibited growth inhibition”. For the same compound, the “cleavage of PARP” value with cleaved PARP (PC cells) is on record as “cleavage of PARP”; in the series with cleaved PARP (normal prostate cells), “not normal prostate cells”. Moreover, in the series on 22Rv1 xenografts, the “adverse effects / toxicity” value is given as “no adverse effects; also recorded: lack of toxicity”. Moreover, the tumor growth entry in the series on 22Rv1 xenografts (castrated nude mice) is “significantly decreased tumor growth at early time points; also recorded: decreases CRPC in vivo growth at early time points”. The “inhibition of AVP-stimulated ERK phosphorylation” value in the series on ERK1/2 phosphorylation is listed as “inhibited this phosphorylation of ERK”. In addition, the anchorage independent growth entry in series [5] (10 μM or 25 μM, six days, FIG. 17) is recorded as “inhibits prostate cancer cell anchorage independent growth”. Besides, the “prostate cancer cell proliferation” value in [5] (FIG. 16) is “inhibits prostate cancer cell proliferation”. The “block of AVP-stimulated phosphoERK” value is listed as “blocks ERK signaling” with ERK phosphorylation and “blocked” in the series with ERK phosphorylation (listed as relcovaptan). Moreover, the “body weight vs controls” value with VCaP xenografts is listed as “no loss of weight”. Besides, the “growth of castration resistant VCaP xenografts” value with VCaP xenografts (started seven days after castration) is “significantly slowed the growth; also recorded: slows growth of VCaP tumors”. Further, in the series with VCaP xenografts (ELISA), the “circulating PSA levels” value is listed as “stabilization of PSA levels”.

Turning to “shAVPR1a: selective shRNA to AVPR1a, SEQ ID NO: 2 (hairpin printed as SEQ ID NO: 4 in b155) (GGTATGTGGAAGGACTCGCCTAAATCTTC)”, the cell death result in the series with 22Rv1 cells [6] is on record as “increased cell death”; in the series on CWR-R1 cells [7], “increased cell death”; with PC3 cells [8], “increased cell death”; in the series with RWPE1 cells [9] it was “not the normal human prostate epithelial RWPE1 cells”. The cell proliferation result with 22Rv1 cells [6], with CWR-R1 cells [7] and in the series with PC3 cells [8] was “decreased cell proliferation” in each case. Besides, the PARP cleavage entry in series [10] (AVPR1a-depleted PC cells) was “observed”; in series [10] (RWPE1 cells), “not in RWPE1 cells”. In addition, the “cyclin A” value in [10] (CRPC lines PC3, 22Rv1, LNCaP Abl, Example 8) is given as “decreased cyclin A”. Further, the “phosphorylation of the retinoblastoma protein” value is given as “decreased phosphorylation of the retinoblastoma protein” in series [10] (PC3 and 22Rv1, Example 8); “not RWPE1 cells” in [10] (RWPE1, Example 8). Besides, in series [10] (PC cells, Example 1), the “Cyclin A levels (G1 to S progression)” value is listed as “decreased levels of Cyclin A”. Moreover, the “levels of full length AR and AR splice variants” value in [11] was “decreased levels of full length AR and AR splice variants”. For the same compound, in series [12] (PC3 and 22RV1, soft agar, three weeks, Example 8), the anchorage independent growth entry is recorded as “significantly reduced anchorage independent growth”. Moreover, in [12] (three PC cell lines (22Rv1, CWR-R1, PC3)), the “anchorage independent growth in soft agar” value was “inhibition of anchorage independent growth in soft agar”. In addition, in series [13], the “proliferation of CRPC cells” value is on record as “greatly decreased proliferation”. Moreover, the “androgen dependent and normal prostate epithelial cell proliferation” value in [14] is given as “less effect”.
